Experimental data from patent publication US20030186817A1, “SUBSTITUTED 2,4-DIAMINO-1,3,5-TRIAZINES, PROCESSES FOR THEIR PREPARATION AND THEIR USE AS HERBICIDES AND PLANT GROWTH REGULATORS” (priority 1998, published 2003).

What was measured:
Type in all cases: in vivo
[1] = test system: Stellaria media, Amaranthus retroflexus, Sinapis avreuse, Avena fatura, Lolium multiflorum and Setaria viridis; assay: Post-emergence action against weeds (greenhouse pot test, visual rating); conditions: three-leaf stage, application rate of 3.0 kg or less of active substance per hectare, 3 to 4 weeks in greenhouse
Experimental: Seeds of mono- and dicotyledonous weeds are placed in sandy loam soil in cardboard pots, covered with soil and cultivated in a greenhouse under good growth conditions. Two to three weeks after sowing, the test plants are treated at the three-leaf stage. The novel compounds, formulated as wettable powders or emulsion concentrates, are sprayed in various dosages onto the green parts of the plant at an application rate of from 600 to 8001 of water/ha (converted), and, after the test plants have remained in the greenhouse for 3 to 4 weeks under optimum growth conditions, the action of the preparations is rated visually by comparison with untreated controls. The novel compositions also have good post-emergence herbicidal activity against a broad spectrum of economically important weed grasses and broad-leaved weeds.

[2] = test system: Cyperus iria and Echinocloa crus-galli; assay: Action on weeds in rice (paddy rice conditions, visual rating); conditions: dammed height of water 2-3 cm, about three weeks after application; also: test concentration or dose not given here
Excerpt: Typical rice weeds such as Echinocloa crus galli and Cyperus iria are cultivated in a greenhouse under paddy rice conditions ([…] height of water: 2-3 cm). After the treatment, the test plants are set up in a greenhouse under optimum growth conditions and are maintained in this way under these conditions throughout the test period. About three weeks after application, evaluation is made by visual rating of the damage to the plants by comparison with untreated controls.

[3] = test system: Stellaria media, Amaranthus retroflexus, Sinapis avreuse, Avena fatura, Lolium multiflorum and Setaria viridis; assay: Pre-emergence action against weeds (greenhouse pot test, visual rating); conditions: application rate of 3.0 kg or less of active substance per hectare, trial period of 3 to 4 weeks
Excerpt: Seeds of mono- and dicotyledonous weed plants are placed in sandy loam soil in cardboard pots and covered with soil. The novel compounds, formulated as wettable powders or emulsion concentrates, are then applied to the surface of the soil cover in the form of an aqueous suspension or emulsion at an application rate of from 600 to 800 l of water/ha (converted), in various dosages. After the treatment, the pots are placed in a greenhouse and kept under good growth conditions for the weeds. After the test plants have emerged after a trial period of 3 to 4 weeks, the damage to the plants or the negative effect on emergence is rated visually by comparison with untreated controls. As shown by the test results, the novel compounds have good herbicidal pre-emergence activity against a broad spectrum of weed grasses and broad-leaved weeds.

CCC(COC(=O)c1ccccc1OC(C)=O)Nc1nc(N)nc(C(C)C)n1 (stereo not shown) [Example 46]
herbicidal activity post-emergence (rated visually) [1]: good and in most cases very good herbicidal activity | herbicidal activity against rice weeds (visual rating of damage) [2]: very good herbicidal activity

Cc1cccc(COCC(C)Nc2nc(N)nc(C(C)(C)F)n2)c1 (stereo not shown) [Example 120]
herbicidal activity pre-emergence (damage to the plants or negative effect on emergence, rated visually) [3]: good and in most cases very good herbicidal activity | herbicidal activity against rice weeds (visual rating of damage) [2]: very good herbicidal activity

CC(CCOc1cccc(Cl)c1)Nc1nc(N)nc(C(C)(C)F)n1 (stereo not shown) [Example 299]
herbicidal activity pre-emergence (damage to the plants or negative effect on emergence, rated visually) [3]: good and in most cases very good herbicidal activity | herbicidal activity post-emergence (rated visually) [1]: good and in most cases very good herbicidal activity | herbicidal activity against rice weeds (visual rating of damage) [2]: very good herbicidal activity

CCC(CCOc1cc(C)cc(C)c1)Nc1nc(N)nc(C(C)C)n1 (stereo not shown) [Example 340]
herbicidal activity pre-emergence (damage to the plants or negative effect on emergence, rated visually) [3]: good and in most cases very good herbicidal activity | herbicidal activity post-emergence (rated visually) [1]: good and in most cases very good herbicidal activity | herbicidal activity against rice weeds (visual rating of damage) [2]: very good herbicidal activity

CC(COCc1ccccc1)Nc1nc(N)nc(C(C)(C)F)n1 (stereo not shown) [Example 201]
herbicidal activity pre-emergence (damage to the plants or negative effect on emergence, rated visually) [3]: good and in most cases very good herbicidal activity | herbicidal activity post-emergence (rated visually) [1]: good and in most cases very good herbicidal activity | herbicidal activity against rice weeds (visual rating of damage) [2]: very good herbicidal activity

CC(CCOc1cccc(F)c1)Nc1nc(N)nc(C(C)C)n1 (stereo not shown) [Example 300]
herbicidal activity pre-emergence (damage to the plants or negative effect on emergence, rated visually) [3]: good and in most cases very good herbicidal activity | herbicidal activity against rice weeds (visual rating of damage) [2]: very good herbicidal activity

CCC(CCOc1cc(F)cc(F)c1)Nc1nc(N)nc(C(C)(C)F)n1 (stereo not shown) [Example 370]
herbicidal activity pre-emergence (damage to the plants or negative effect on emergence, rated visually) [3]: good and in most cases very good herbicidal activity | herbicidal activity post-emergence (rated visually) [1]: good and in most cases very good herbicidal activity | herbicidal activity against rice weeds (visual rating of damage) [2]: very good herbicidal activity

CCC(CCOc1cccc(Cl)c1)Nc1nc(N)nc(C(C)C)n1 (stereo not shown) [Example 372]
herbicidal activity pre-emergence (damage to the plants or negative effect on emergence, rated visually) [3]: good and in most cases very good herbicidal activity | herbicidal activity post-emergence (rated visually) [1]: good and in most cases very good herbicidal activity | herbicidal activity against rice weeds (visual rating of damage) [2]: very good herbicidal activity

CCC(CCOc1cccc(C)c1)Nc1nc(N)nc(C(C)C)n1 (stereo not shown) [Example 358]
herbicidal activity pre-emergence (damage to the plants or negative effect on emergence, rated visually) [3]: good and in most cases very good herbicidal activity | herbicidal activity post-emergence (rated visually) [1]: good and in most cases very good herbicidal activity | herbicidal activity against rice weeds (visual rating of damage) [2]: very good herbicidal activity

COc1cccc(OCCC(C)Nc2nc(N)nc(C(C)C)n2)c1 (stereo not shown) [Example 213]
herbicidal activity pre-emergence (damage to the plants or negative effect on emergence, rated visually) [3]: good and in most cases very good herbicidal activity | herbicidal activity post-emergence (rated visually) [1]: good and in most cases very good herbicidal activity | herbicidal activity against rice weeds (visual rating of damage) [2]: very good herbicidal activity

CCC(CCOc1cccc(Cl)c1)Nc1nc(N)nc(C(F)(F)C(F)F)n1 (stereo not shown) [Example 347]
herbicidal activity pre-emergence (damage to the plants or negative effect on emergence, rated visually) [3]: good and in most cases very good herbicidal activity | herbicidal activity post-emergence (rated visually) [1]: good and in most cases very good herbicidal activity | herbicidal activity against rice weeds (visual rating of damage) [2]: very good herbicidal activity

CCC(CCCOc1ccccc1)Nc1nc(N)nc(C(C)(C)F)n1 (stereo not shown) [Example 490]
herbicidal activity pre-emergence (damage to the plants or negative effect on emergence, rated visually) [3]: good and in most cases very good herbicidal activity | herbicidal activity post-emergence (rated visually) [1]: good and in most cases very good herbicidal activity

CCC(CCOc1ccccc1)Nc1nc(N)nc(C(F)(F)C(F)F)n1 (stereo not shown) [Example 394]
herbicidal activity pre-emergence (damage to the plants or negative effect on emergence, rated visually) [3]: good and in most cases very good herbicidal activity | herbicidal activity against rice weeds (visual rating of damage) [2]: very good herbicidal activity

CCC(CCOc1cccc(OC)c1)Nc1nc(N)nc(C(C)(C)F)n1 (stereo not shown) [Example 384]
herbicidal activity pre-emergence (damage to the plants or negative effect on emergence, rated visually) [3]: good and in most cases very good herbicidal activity | herbicidal activity post-emergence (rated visually) [1]: good and in most cases very good herbicidal activity | herbicidal activity against rice weeds (visual rating of damage) [2]: very good herbicidal activity

CCCc1nc(N)nc(NC(CC)CCCCOc2ccccc2)n1 (stereo not shown) [Example 618]
herbicidal activity pre-emergence (damage to the plants or negative effect on emergence, rated visually) [3]: good and in most cases very good herbicidal activity | herbicidal activity post-emergence (rated visually) [1]: good and in most cases very good herbicidal activity

CC(CCCCOc1ccccc1)Nc1nc(N)nc(C(F)(F)C(F)F)n1 (stereo not shown) [Example 696]
herbicidal activity pre-emergence (damage to the plants or negative effect on emergence, rated visually) [3]: good and in most cases very good herbicidal activity | herbicidal activity post-emergence (rated visually) [1]: good and in most cases very good herbicidal activity

CC(F)c1nc(N)nc(NCC(=O)NCc2ccccc2)n1 (stereo not shown) [Example 930]
herbicidal activity pre-emergence (damage to the plants or negative effect on emergence, rated visually) [3]: good and in most cases very good herbicidal activity | herbicidal activity post-emergence (rated visually) [1]: good and in most cases very good herbicidal activity

CCC(COCCOc1ccccc1)Nc1nc(N)nc(C(C)(C)F)n1 (stereo not shown) [Example 1344]
herbicidal activity pre-emergence (damage to the plants or negative effect on emergence, rated visually) [3]: good and in most cases very good herbicidal activity | herbicidal activity post-emergence (rated visually) [1]: good and in most cases very good herbicidal activity

Cc1cccc(OCCCC(C)Nc2nc(N)nc(C(C)F)n2)c1 (stereo not shown) [Example 532]
herbicidal activity pre-emergence (damage to the plants or negative effect on emergence, rated visually) [3]: good and in most cases very good herbicidal activity | herbicidal activity post-emergence (rated visually) [1]: good and in most cases very good herbicidal activity

CC(CCOc1cc(F)cc(F)c1)Nc1nc(N)nc(C(F)(F)C(F)F)n1 (stereo not shown) [Example 297]
herbicidal activity pre-emergence (damage to the plants or negative effect on emergence, rated visually) [3]: good and in most cases very good herbicidal activity | herbicidal activity post-emergence (rated visually) [1]: good and in most cases very good herbicidal activity

CC(C)c1nc(N)nc(NC(CCCOc2ccccc2)C2CC2)n1 (stereo not shown) [Example 554]
herbicidal activity pre-emergence (damage to the plants or negative effect on emergence, rated visually) [3]: good and in most cases very good herbicidal activity | herbicidal activity post-emergence (rated visually) [1]: good and in most cases very good herbicidal activity

CC(COCCOc1ccccc1)Nc1nc(N)nc(C(C)(C)F)n1 (stereo not shown) [Example 1385]
herbicidal activity pre-emergence (damage to the plants or negative effect on emergence, rated visually) [3]: good and in most cases very good herbicidal activity | herbicidal activity post-emergence (rated visually) [1]: good and in most cases very good herbicidal activity

CCC(CCCOc1ccccc1)Nc1nc(N)nc(C(C)C)n1 (stereo not shown) [Example 510]
herbicidal activity pre-emergence (damage to the plants or negative effect on emergence, rated visually) [3]: good and in most cases very good herbicidal activity | herbicidal activity post-emergence (rated visually) [1]: good and in most cases very good herbicidal activity

CC(C)c1nc(N)nc(NCC=NOCc2ccccc2)n1 [Example 1253]
herbicidal activity pre-emergence (damage to the plants or negative effect on emergence, rated visually) [3]: good and in most cases very good herbicidal activity | herbicidal activity post-emergence (rated visually) [1]: good and in most cases very good herbicidal activity

CC(C)(F)c1nc(N)nc(NC(CCCCOc2ccccc2)C2CC2)n1 (stereo not shown) [Example 636]
herbicidal activity pre-emergence (damage to the plants or negative effect on emergence, rated visually) [3]: good and in most cases very good herbicidal activity | herbicidal activity post-emergence (rated visually) [1]: good and in most cases very good herbicidal activity

CCc1nc(N)nc(NCC=NOCc2cc(C)cc(C)c2)n1 [Example 1235]
herbicidal activity pre-emergence (damage to the plants or negative effect on emergence, rated visually) [3]: good and in most cases very good herbicidal activity | herbicidal activity post-emergence (rated visually) [1]: good and in most cases very good herbicidal activity

CC(C)c1nc(N)nc(NCC(=O)NCc2ccccc2)n1 [Example 987]
herbicidal activity pre-emergence (damage to the plants or negative effect on emergence, rated visually) [3]: good and in most cases very good herbicidal activity | herbicidal activity post-emergence (rated visually) [1]: good and in most cases very good herbicidal activity

Cc1cccc(OCCCC(C)Nc2nc(N)nc(C(C)(C)F)n2)c1 (stereo not shown) [Example 502]
herbicidal activity pre-emergence (damage to the plants or negative effect on emergence, rated visually) [3]: good and in most cases very good herbicidal activity | herbicidal activity post-emergence (rated visually) [1]: good and in most cases very good herbicidal activity

CC(F)c1nc(N)nc(NC(CCCCOc2ccccc2)C2CC2)n1 (stereo not shown) [Example 681]
herbicidal activity pre-emergence (damage to the plants or negative effect on emergence, rated visually) [3]: good and in most cases very good herbicidal activity | herbicidal activity post-emergence (rated visually) [1]: good and in most cases very good herbicidal activity
